# Results taken from patent US20230391760A1, “HETEROCYCLIC GLP-1 AGONISTS” (Gasherbrum Bio, Inc., priority 2020, published 2023).
# Molecular target: GLP-1 Receptor (Homo sapiens, UniProt P43220)
# Test: GLP-1R agonist cAMP stimulation assay (HEK293/GLP1R/CRE-LUC cells, cAMP dynamic 2 Kit)
# Type: cell-based
# Settings: HEK293/CRE-Luc cell line stably expressing the GLP-1 Receptor, 30 min at 37° C.
# In short: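 HEK293 cells stably expressing human GLP-1R with CRE-luciferase, 1000 cells/well in DPBS with 0.5 mM IBMX and 0.1% BSA, treated with compound in 1/2-log serial dilution for 30 min at 37 °C. cAMP then detected by HTRF (cAMP-d2 plus anti-cAMP cryptate), 1 h at room temperature in the dark.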
# Sequence of GLP-1 Receptor (P43220 24-463, species assumed): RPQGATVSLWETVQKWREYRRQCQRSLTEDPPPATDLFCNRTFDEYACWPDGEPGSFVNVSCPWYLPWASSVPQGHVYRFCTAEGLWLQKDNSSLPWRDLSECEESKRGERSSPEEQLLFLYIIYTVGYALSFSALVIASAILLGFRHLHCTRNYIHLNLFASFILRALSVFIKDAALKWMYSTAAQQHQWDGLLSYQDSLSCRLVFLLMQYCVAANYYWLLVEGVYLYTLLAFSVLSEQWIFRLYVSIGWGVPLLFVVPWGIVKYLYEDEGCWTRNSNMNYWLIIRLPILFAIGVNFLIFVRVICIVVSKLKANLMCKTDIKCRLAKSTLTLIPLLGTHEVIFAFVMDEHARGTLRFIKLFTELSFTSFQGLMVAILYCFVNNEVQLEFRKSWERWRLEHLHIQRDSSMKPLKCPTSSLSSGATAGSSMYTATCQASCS
row,SMILES,EC50 [nM]
1,"O=c1[nH]c(-c2cc3nc(CN4CC=C(c5ccc(F)c(OCc6ccc(Cl)cc6F)c5)CC4)n(C[C@@H]4CCO4)c3cn2)no1 [Compound 299a, 3-{2-[(4-{3-[(4-chloro-2-fluorophenyl)methoxy]-4-fluorophenyl}-1,2,3,6-tetrahydropyridin-1-yl)methyl]-3-{[(2S)-oxetan-2-yl]methyl}-3H-imidazo[4,5-c]pyridin-6-yl}-4,5-dihydro-1,2,4-oxadiazol-5-one]",0.26
2,"Cc1nc(-c2nnc(C(F)(F)F)[nH]2)cc2nc(CN3CCC(c4cccc5c4O[C@@](C)(c4ccc(Cl)cc4F)O5)CC3)n(C[C@@H]3CCO3)c12 [Compound 302a, 4-[(2S)-2-(4-chloro-2-fluorophenyl)-2-methyl-2H-1,3-benzodioxol-4-yl]-1-[(4-methyl-3-{[(2S)-oxetan-2-yl]methyl}-6-[5-(trifluoromethyl)-4H-1,2,4-triazol-3-yl]-3H-imidazo[4,5-c]pyridin-2-yl)methyl]piperidine]",0.17
3,"Fc1cc(Cl)ccc1COc1cccc(C2=CCN(Cc3nc4cc(-c5nnc(C(F)(F)F)[nH]5)ncc4n3C[C@@H]3CCO3)CC2)c1 [Compound 307a, 4-{3-[(4-chloro-2-fluorophenyl)methoxy]phenyl}-1-[(3-{[(2S)-oxetan-2-yl]methyl}-6-[5-(trifluoromethyl)-4H-1,2,4-triazol-3-yl]-3H-imidazo[4,5-c]pyridin-2-yl)methyl]-1,2,3,6-tetrahydropyridine]",0.26
4,"N#Cc1ccc(COc2cccc(C3CCN(Cc4nc5cc(-c6nnc(C(F)(F)F)[nH]6)ncc5n4C[C@@H]4CCO4)CC3)n2)c(F)c1 [Compound 313a, 3-fluoro-4-{[(6-{1-[(3-{[(2S)-oxetan-2-yl]methyl}-6-[5-(trifluoromethyl)-4H-1,2,4-triazol-3-yl]-3H-imidazo[4,5-c]pyridin-2-yl)methyl]piperidin-4-yl}pyridin-2-yl)oxy]methyl}benzonitrile]",0.012
5,"O=c1[nH]c(-c2cc3nc(CN4CCC(c5cccc(OCc6ccc(Cl)cc6F)n5)CC4)n(C[C@@H]4CCO4)c3cn2)no1 [Compound 316a, 3-{2-[(4-{6-[(4-chloro-2-fluorophenyl)methoxy]pyridin-2-yl}piperidin-1-yl)methyl]-3-{[(2S)-oxetan-2-yl]methyl}-3H-imidazo[4,5-c]pyridin-6-yl}-4,5-dihydro-1,2,4-oxadiazol-5-one]",0.037
6,"N#Cc1ccc(COc2cccc(C3=CCN(Cc4nc5cc(-c6nnc(C(F)(F)F)[nH]6)cnc5n4C[C@@H]4CCO4)CC3)c2)c(F)c1 [Compound 317a, 3-fluoro-4-[(3-{1-[(3-{[(2S)-oxetan-2-yl]methyl}-6-[5-(trifluoromethyl)-4H-1,2,4-triazol-3-yl]-3H-imidazo[4,5-b]pyridin-2-yl)methyl]-1,2,3,6-tetrahydropyridin-4-yl}phenoxy)methyl]benzonitrile]",0.11
7,"O=c1[nH]c(-c2cnc3c(c2)nc(CN2CC=C(c4cccc(OCc5ccc(Cl)cc5F)c4)CC2)n3C[C@@H]2CCO2)no1 [Compound 320a, 3-{2-[(4-{3-[(4-chloro-2-fluorophenyl)methoxy]phenyl}-1,2,3,6-tetrahydropyridin-1-yl)methyl]-3-{[(2S)-oxetan-2-yl]methyl}-3H-imidazo[4,5-b]pyridin-6-yl}-4,5-dihydro-1,2,4-oxadiazol-5-one]",6.8
8,"Fc1cc(Cl)ccc1COc1cccc(C2=CCN(Cc3nc4cc(-c5nnc(C(F)(F)F)[nH]5)cnc4n3C[C@@H]3CCO3)CC2)n1 [Compound 323a, 6-[(4-chloro-2-fluorophenyl)methoxy]-1′-[(3-{[(2S)-oxetan-2-yl]methyl}-6-[5-(trifluoromethyl)-4H-1,2,4-triazol-3-yl]-3H-imidazo[4,5-b]pyridin-2-yl)methyl]-1′,2′,3′,6′-tetrahydro-2,4′-bipyridine]",0.016
9,"O=c1[nH]c(-c2cnc3c(c2)nc(CN2CC=C(c4cccc(OCc5ccc(Cl)cc5F)n4)CC2)n3C[C@@H]2CCO2)no1 [Compound 324a, 3-[2-({6-[(4-chloro-2-fluorophenyl)methoxy]-1′,2′,3′,6′-tetrahydro-[2,4′-bipyridin]-1′-yl}methyl)-3-{[(2S)-oxetan-2-yl]methyl}-3H-imidazo[4,5-b]pyridin-6-yl]-4,5-dihydro-1,2,4-oxadiazol-5-one]",0.11
10,"N#Cc1ccc(COc2cccc(C3CCN(Cc4nc5cc(-c6nnc(C(F)(F)F)[nH]6)cnc5n4C[C@@H]4CCO4)CC3)n2)c(F)c1 [Compound 325a, 3-fluoro-4-{[(6-{1-[(3-{[(2S)-oxetan-2-yl]methyl}-6-[5-(trifluoromethyl)-4H-1,2,4-triazol-3-yl]-3H-imidazo[4,5-b]pyridin-2-yl)methyl]piperidin-4-yl}pyridin-2-yl)oxy]methyl}benzonitrile]",0.012
11,"Fc1cc(Cl)ccc1COc1cccc(C2CCN(Cc3nc4cc(-c5nnc(C(F)(F)F)[nH]5)cnc4n3C[C@@H]3CCO3)CC2)n1 [Compound 327a, 2-[(4-chloro-2-fluorophenyl)methoxy]-6-{1-[(3-{[(2S)-oxetan-2-yl]methyl}-6-[5-(trifluoromethyl)-4H-1,2,4-triazol-3-yl]-3H-imidazo[4,5-b]pyridin-2-yl)methyl]piperidin-4-yl}pyridine]",0.013
12,"CC1(c2ccc(C#N)cc2F)Oc2cccc(C3CCN(Cc4nc5cc(-c6noc(=O)[nH]6)cnc5n4C[C@@H]4CCO4)CC3)c2O1 (stereo partly drawn) [Compound 329a, 3-fluoro-4-(2-methyl-4-{1-[(3-{[(2S)-oxetan-2-yl]methyl}-6-(5-oxo-4,5-dihydro-1,2,4-oxadiazol-3-yl)-3H-imidazo[4,5-b]pyridin-2-yl)methyl]piperidin-4-yl}-2H-1,3-benzodioxol-2-yl)benzonitrile]",0.25
13,"CC1(c2ccc(Cl)cc2)Oc2cccc(C3CCN(Cc4nc5cc(-c6noc(=O)[nH]6)cnc5n4C[C@@H]4CCO4)CC3)c2O1 (stereo partly drawn) [Compound 330a, 3-[2-({4-[2-(4-chlorophenyl)-2-methyl-2H-1,3-benzodioxol-4-yl]piperidin-1-yl}methyl)-3-{[(2S)-oxetan-2-yl]methyl}-3H-imidazo[4,5-b]pyridin-6-yl]-4,5-dihydro-1,2,4-oxadiazol-5-one]",0.97
14,"CC1(c2ccc(Cl)cn2)Oc2cccc(C3CCN(Cc4nc5cc(-c6noc(=O)[nH]6)cnc5n4C[C@@H]4CCO4)CC3)c2O1 (stereo partly drawn) [Compound 332a, 3-[2-({4-[2-(5-chloropyridin-2-yl)-2-methyl-2H-1,3-benzodioxol-4-yl]piperidin-1-yl}methyl)-3-{[(2S)-oxetan-2-yl]methyl}-3H-imidazo[4,5-b]pyridin-6-yl]-4,5-dihydro-1,2,4-oxadiazol-5-one]",1.6

# Further compounds by falling EC50, results first:
row,EC50 [nM],SMILES
1,10,"N#Cc1ccc(COc2cccc(C3=CCN(Cc4nc5cc(-c6noc(=O)[nH]6)cnc5n4C[C@@H]4CCO4)CC3)c2)c(F)c1 [Compound 318a, 3-fluoro-4-[(3-{1-[(3-{[(2S)-oxetan-2-yl]methyl}-6-(5-oxo-4,5-dihydro-1,2,4-oxadiazol-3-yl)-3H-imidazo[4,5-b]pyridin-2-yl)methyl]-1,2,3,6-tetrahydropyridin-4-yl}phenoxy)methyl]benzonitrile]"
2,0.5,"O=c1[nH]c(-c2cc3nc(CN4CC=C(c5cccc(OCc6ccc(Cl)cc6F)c5)CC4)n(C[C@@H]4CCO4)c3cn2)no1 [Compound 308a, 3-{2-[(4-{3-[(4-chloro-2-fluorophenyl)methoxy]phenyl}-1,2,3,6-tetrahydropyridin-1-yl)methyl]-3-{[(2S)-oxetan-2-yl]methyl}-3H-imidazo[4,5-c]pyridin-6-yl}-4,5-dihydro-1,2,4-oxadiazol-5-one]"
3,0.37,"O=c1[nH]c(-c2cnc3c(c2)nc(CN2CCC(c4cccc(OCc5ccc(Cl)cc5F)n4)CC2)n3C[C@@H]2CCO2)no1 [Compound 328a, 3-{2-[(4-{6-[(4-chloro-2-fluorophenyl)methoxy]pyridin-2-yl}piperidin-1-yl)methyl]-3-{[(2S)-oxetan-2-yl]methyl}-3H-imidazo[4,5-b]pyridin-6-yl}-4,5-dihydro-1,2,4-oxadiazol-5-one]"
4,0.36,"Fc1cc(Cl)ccc1COc1cccc(C2=CCN(Cc3nc4cc(-c5nnc(C(F)(F)F)[nH]5)cnc4n3C[C@@H]3CCO3)CC2)c1 [Compound 319a, 4-{3-[(4-chloro-2-fluorophenyl)methoxy]phenyl}-1-[(3-{[(2S)-oxetan-2-yl]methyl}-6-[5-(trifluoromethyl)-4H-1,2,4-triazol-3-yl]-3H-imidazo[4,5-b]pyridin-2-yl)methyl]-1,2,3,6-tetrahydropyridine]"
5,0.1,"N#Cc1ccc(COc2cc(C3=CCN(Cc4nc5cc(-c6nnc(C(F)(F)F)[nH]6)ncc5n4C[C@@H]4CCO4)CC3)ccc2F)c(F)c1 [Compound 300a, 3-fluoro-4-[(2-fluoro-5-{1-[(3-{[(2S)-oxetan-2-yl]methyl}-6-[5-(trifluoromethyl)-4H-1,2,4-triazol-3-yl]-3H-imidazo[4,5-c]pyridin-2-yl)methyl]-1,2,3,6-tetrahydropyridin-4-yl}phenoxy)methyl]benzonitrile]"
6,0.078,"N#Cc1ccc(COc2cccc(C3=CCN(Cc4nc5cc(-c6noc(=O)[nH]6)cnc5n4C[C@@H]4CCO4)CC3)n2)c(F)c1 [Compound 322a, 3-fluoro-4-[({1′-[(3-{[(2S)-oxetan-2-yl]methyl}-6-(5-oxo-4,5-dihydro-1,2,4-oxadiazol-3-yl)-3H-imidazo[4,5-b]pyridin-2-yl)methyl]-1′,2′,3′,6′-tetrahydro-[2,4′-bipyridin]-6-yl}oxy)methyl]benzonitrile]"
7,0.022,"N#Cc1ccc(COc2cccc(C3=CCN(Cc4nc5cc(-c6nnc(C(F)(F)F)[nH]6)cnc5n4C[C@@H]4CCO4)CC3)n2)c(F)c1 [Compound 321a, 3-fluoro-4-[({1′-[(3-{[(2S)-oxetan-2-yl]methyl}-6-[5-(trifluoromethyl)-4H-1,2,4-triazol-3-yl]-3H-imidazo[4,5-b]pyridin-2-yl)methyl]-1′,2′,3′,6′-tetrahydro-[2,4′-bipyridin]-6-yl}oxy)methyl]benzonitrile]"
